Laboratory results from patent US20100173777A1, “Piperazine Compounds Having Herbicidal Action” (BASF SE, priority 2007, published 2010).

Legend:
Assay type in all cases: in vivo
[1] = tested on: CHEAL (Chenopodium album); assay: greenhouse post-emergence herbicidal test, CHEAL; conditions: 1.0 kg/ha, scale from 0 to 100
Text: (§1) The culture containers used were plastic flowerpots containing loamy sand with approximately 3.0% of humus as the substrate. The seeds of the test plants were sown separately for each species.
(§2) For the post-emergence treatment, the test plants were first grown to a height of 3 to 15 cm, depending on the plant habit, and only then treated with the active ingredients which had been suspended or emulsified in water. For this purpose, the test plants were either sown directly and grown in the same containers, or they were first grown separately as seedlings and transplanted into the test containers a few days prior to treatment.
(§3) Depending on the species, the plants were kept at 10-25° C. or 20-35° C. The test period extended over 2 to 4 weeks. During this time, the plants were tended, and their response to the individual treatments was evaluated.
(§4) Evaluation was carried out using a scale from 0 to 100. 100 means no emergence of the plants, or complete destruction of at least the aerial moieties, and 0 means no damage, or normal course of growth. A good herbicidal activity is given at values of at least 70 and a very good herbicidal activity is given at values of at least 85.

[2] = tested on: APESV (Apera spica-venti); assay: greenhouse pre-emergence herbicidal test, APESV; conditions: scale from 0 to 100
Text: as §1
(§5) For the pre-emergence treatment, the active ingredients, which had been suspended or emulsified in water, were applied directly after sowing by means of finely distributing nozzles. The containers were irrigated gently to promote germination and growth and subsequently covered with transparent plastic hoods until the plants had rooted. This cover caused uniform germination of the test plants, unless this has been impaired by the active ingredients.
as §3, §4

[3] = tested on: ECHCG (Echinochloa crus-galli); assay: greenhouse pre-emergence herbicidal test, ECHCG; conditions: scale from 0 to 100
Text: as §1, §5, §3, §4

[4] = tested on: AMARE (Amaranthus retoflexus); assay: greenhouse post-emergence herbicidal test, AMARE; conditions: 1.0 kg/ha, scale from 0 to 100
Text: as §1, §2, §3, §4

SETFA (Setaria faberi) = assay: greenhouse pre-emergence herbicidal test, SETFA; conditions: 1.0 kg/ha, scale from 0 to 100
Text: as §1, §5, §3, §4

[5] = tested on: ECHCG (Echinochloa crus-galli); assay: greenhouse post-emergence herbicidal test, ECHCG; conditions: scale from 0 to 100
Text: as §1, §2, §3, §4

[6] = tested on: ALOMY (Alopecurus myosuroides); assay: greenhouse pre-emergence herbicidal test, ALOMY; conditions: scale from 0 to 100
Text: as §1, §5, §3, §4

SETVI (Setaria viridis) = assay: greenhouse post-emergence herbicidal test, SETVI; conditions: 1.0 kg/ha, scale from 0 to 100
Text: as §1, §2, §3, §4

[7] = tested on: AMARE (Amaranthus retoflexus); assay: greenhouse pre-emergence herbicidal test, AMARE; conditions: 1.0 kg/ha, scale from 0 to 100
Text: as §1, §5, §3, §4

[8] = tested on: ALOMY (Alopecurus myosuroides); assay: greenhouse post-emergence herbicidal test, ALOMY; conditions: 0.5 kg/ha, scale from 0 to 100
Text: as §1, §2, §3, §4

[9] = tested on: APESV (Apera spica-venti); assay: greenhouse post-emergence herbicidal test, APESV; conditions: 0.5 kg/ha, scale from 0 to 100
Text: as §1, §2, §3, §4

CN1C(=O)C(C)(Cc2ccccc2)N(C)C(=O)C1Cc1ccccc1C#N (single isomer, unassigned) [Example 1 (main isomer 1), 2-[5-Benzyl-1,4,5-trimethyl-3,6-dioxopiperazine-2-ylmethyl]benzonitrile]
herbicidal activity against CHEAL [1]: very good herbicidal activity (a very good herbicidal activity is given at values of at least 85) | herbicidal activity against APESV ([2]; 1.0 kg/ha): very good herbicidal activity (a very good herbicidal activity is given at values of at least 85) | herbicidal activity against ECHCG ([3]; 1.0 kg/ha): very good herbicidal activity (a very good herbicidal activity is given at values of at least 85) | herbicidal activity against AMARE [4]: very good herbicidal activity (a very good herbicidal activity is given at values of at least 85) | herbicidal activity against SETFA (SETFA (Setaria faberi)): very good herbicidal activity (a very good herbicidal activity is given at values of at least 85) | herbicidal activity against ECHCG ([5]; 1.0 kg/ha): very good herbicidal activity (a very good herbicidal activity is given at values of at least 85) | herbicidal activity against ALOMY ([6]; 1.0 kg/ha): very good herbicidal activity (a very good herbicidal activity is given at values of at least 85) | herbicidal activity against SETVI (SETVI (Setaria viridis)): very good herbicidal activity (a very good herbicidal activity is given at values of at least 85) | herbicidal activity against AMARE [7]: very good herbicidal activity (a very good herbicidal activity is given at values of at least 85)

CN1C(=O)C(C)(Cc2ccccc2)N(C)C(=O)C1Cc1ccccc1C#N (single isomer, unassigned) [Example 1 (minor isomer 2), 2-[5-Benzyl-1,4,5-trimethyl-3,6-dioxopiperazine-2-ylmethyl]benzonitrile]
herbicidal activity against APESV ([2]; 0.5 kg/ha): very good herbicidal activity (a very good herbicidal activity is given at values of at least 85) | herbicidal activity against ECHCG ([3]; 0.5 kg/ha): very good herbicidal activity (a very good herbicidal activity is given at values of at least 85) | herbicidal activity against ECHCG ([5]; 0.5 kg/ha): very good herbicidal activity (a very good herbicidal activity is given at values of at least 85) | herbicidal activity against ALOMY ([6]; 0.5 kg/ha): very good herbicidal activity (a very good herbicidal activity is given at values of at least 85) | herbicidal activity against ALOMY [8]: very good herbicidal activity (a very good herbicidal activity is given at values of at least 85) | herbicidal activity against APESV [9]: very good herbicidal activity (a very good herbicidal activity is given at values of at least 85)
